From patent US6967205B1, “Compounds with antibacterial and antiparasitic properties” (New Pharma Research Sweden AB, priority 1999, dated 2005) come the findings set out here.

Assay [1] has as its system Bacillus cereus. Briefly: M.I.C. by broth dilution method (NCCLS 1988), gram-positive bacteria. It is filed as cell-based. The conditions noted are these: in vitro broth dilution. A digest of the protocol: (§1)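 MIC values were obtained by broth dilution following NCCLS 1988 against gram-positive strains including Bacillus subtilus ATCC 6633, Streptococcus faecium and Staphylococcus ATCC 6538. Enrofloxacin served as reference. Compound stocks were 1 000 μg/ml in aqueous KOH or KOH/DMF.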

Assay [2] relates to Bacillus subtilus (ATCC 6633). The assay is described as above. The assay is classed as cell-based. Conditions: ATCC6633, in vitro broth dilution. In short, it runs like this: as §1
(In broth dilution the organism is exposed to a series of concentrations in liquid medium.)

The test system of assay [3] is Micrococcus Luteus (ATCC 9341). The assay is described as above. It is filed as cell-based. The conditions noted are these: ATCC9341, in vitro broth dilution, read-out: M.I.C. values Microc. Luteus. In short, it runs like this:
as §1

Assay [4] relates to Staph. aureus (ATCC 29737). The description is as above. The assay is classed as cell-based. Conditions: Staphylococcus aureus, ATCC29737, in vitro broth dilution. A digest of the protocol: as §1
In assay [5] the test system is Staph. epidermidis (ATCC 12228). The assay is described as above. Conditions: Staphylococcus epidermidis, ATCC12228, in vitro broth dilution. It is filed as cell-based. A digest of the protocol:
as §1

In assay [6] the test system is Staphylococcus (ATCC 6538). The description is as above. It is filed as cell-based. The conditions noted are these: ATCC6538, in vitro broth dilution, read-out: M.I.C. values Staph. (ATCC 6538). In short, it runs like this:
as §1

Assay [7] concerns Streptococcus faecium. Described as above. It is filed as cell-based. Conditions: Enterococcus faecium, in vitro broth dilution, read-out: M.I.C. values Streptoc. faecium. A digest of the protocol: as §1
For assay [8], the system named is gram-negative bacteria (E. coli, KL. Pnemonia, Bordetella bronchiseptic, Salmonella typhi, Salmonella spp., Proteus spp., Pasterulla Duck, Pasterulla Camel). Briefly: M.I.C. by broth dilution method, gram-negative bacteria. The assay is classed as cell-based. Conditions: eleven gram-negative strains. How it is done: (§2) The antibacterial activity of the present compounds was investigated by in vitro evaluation of their M.I.C. (Minimum Inhibitory Concentration) values. The evaluation was conducted in complete accordance with the “Broth dilution method”, as outlined by the U.S. National Committee for Clinical Laboratory Standards “NCCLS 1988”.
(§3) Solutions of the present compounds were prepared by dissolving 0.01 g of a test compound in either 10% KOH (aq) or a 10% KOH/DMF mixture, after which sterile, distilled H2O was added up to a total volume of 10 ml, thereby yielding a test compound concentration of 1 000 μg/ml.
In the same manner as above, the M.I.C. values of the present compounds JA 3, JA 5, JA 12, JA 42, JA 73 and enrofloxacin as reference compound were investigated also on gram-negative bacteria. The gram-negative bacteria used were E. coli (ATCC 25922), E. Coli (ATCC 8739), E. Coli (ATCC 10536), E. Coli Pathogenic, KL. Pnemonia (ATCC 10031), Bordetella bronchiseptic (ATCC 4617), Salmonella typhi, Salmonella spp., Proteus spp., Pasterulla Duck and Pasterulla Camel.

Assay [9] has as its system M. gallisepticum. Briefly: M.I.C. against Mycoplasma in microtitre plates (Tanner and Wu). The assay is classed as cell-based. Conditions: Mycoplasmoides gallisepticum; in vitro, microtitre plates. How it is done:
The M.I.C. values of the compounds JA 1, JA 3, JA 5, JA 12, JA 42 and JA 43 were determined in vitro against M. gallisepticum. Enrofloxacin, tylosin and oxytetracyclin were used as reference compounds. The tested compounds were all stored and applied as solutions in distilled water. The M.I.C. evaluation was performed in microtitre plates, and the methodology employed was basically that of Tanner and Wu (Avian Disease, 36:714-717 (1992)).

For assay [10], the system named is Eimeria acervulina, E. maxima, E. necatrix, E. tenella and E. brunetti. Briefly: Prophylactic anticoccidial activity in chickens of Habbared X breed (5 Eimeria strains). It is filed as in vivo. The conditions noted are these: for anticoccidial effect (in words): chickens of Habbared X breed, 100 ppm in feed; for Average number of Eimeria spp. oocysts/g faeces, day after hatch 14: day 14 after hatch; for Average number of Eimeria spp. oocysts/g faeces, day after hatch 14 / Average number of Eimeria spp. oocysts/g faeces, day after hatch 15 / Average number of Eimeria spp. oocysts/g faeces, day after hatch 16 / Average number of Eimeria spp. oocysts/g faeces, day after hatch 17 / Average number of Eimeria spp. oocysts/g faeces, day after hatch 18 / Average number of Eimeria spp. oocysts/g faeces, day after hatch 19 / Average number of Eimeria spp. oocysts/g faeces, day after hatch 21 / Mean body weight / Mean amount of feed consumed / Average number of Eimeria spp. oocysts/g faeces, Total: drug in feed (JA 39, JA 42 100 ppm; Coxistac 60 ppm); for Average number of Eimeria spp. oocysts/g faeces, day after hatch 14 / Average number of Eimeria spp. oocysts/g faeces, day after hatch 15 / Average number of Eimeria spp. oocysts/g faeces, day after hatch 16 / Average number of Eimeria spp. oocysts/g faeces, day after hatch 17 / Average number of Eimeria spp. oocysts/g faeces, day after hatch 18 / Average number of Eimeria spp. oocysts/g faeces, day after hatch 19 / Average number of Eimeria spp. oocysts/g faeces, day after hatch 21: infected day 10; for Average number of Eimeria spp. oocysts/g faeces, day after hatch 15: day 15 after hatch; for Average number of Eimeria spp. oocysts/g faeces, day after hatch 16: day 16 after hatch; for Average number of Eimeria spp. oocysts/g faeces, day after hatch 17: day 17 after hatch; for Average number of Eimeria spp. oocysts/g faeces, day after hatch 18: day 18 after hatch; for Average number of Eimeria spp. oocysts/g faeces, day after hatch 19: day 19 after hatch; for Average number of Eimeria spp. oocysts/g faeces, day after hatch 21: day 21 after hatch; for Mean body weight: final weight; for Mean body weight / Mean amount of feed consumed: infected chickens; for Mean amount of feed consumed: mean total feed per bird; for Average number of Eimeria spp. oocysts/g faeces, Total: total of days 14-21 after hatch. As to the method: The anticoccidial activity of the present compounds as prophylactic agents was evaluated in vivo on […] one day old (1 day after hatch) chickens of Habbared X breed. The chickens were divided into four groups of 20 birds each, and each group was located in a separate pen (1 m×1 m). The chickens were then fed with unmedicated food up to day 7 after hatch. Fresh water was supplied ad libitum .
On day 8 after hatch, the four groups were fed as follows (1 ppm=1 mg drug/kg feed): • Group #1: feed containing JA 39 (100 ppm); • Group #2: feed containing JA 42 (100 ppm); • Group #3: feed containing Coxistac (60 ppm), a known anticoccidial agent (see U.S. Pat. No. 3,857,948);
Group #4: feed containing no drug (control group).
The chickens were fed as above on day 8 and 9 after hatch. On day 10 after hatch, each chicken was infected orally by 6 000-7 000 oocysts containing a mixture of 5 mature sporulated strains, namely Eimeria acervulina, E. maxima, E. necatrix, E. tenella and E. brunetti. The groups #1-3 received drug as above from day 10 to 21 after hatch.
From day 14 to 21 after hatch, fresh fecal droplets were collected and examined daily. The average number of oocysts/g faeces was then calculated in accordance with the so-called Mc-Master technique (Soulsby, E. J., Helminths, Arthropods & Protozoa of domesticated animals, p. 789, 6th Ed., Williams & Wilkins Co. Baltimore (USA), Tindall & Cassell Ltd., London, 1968). The final weight of and mean total amount of feed consumed by each bird were also examined, and the results are summarized in Table 8 hereinbelow.

The test system of assay [11] is E. mitis, E. hagani, E. praecox, E. acervulina, E. maxima, E. necatrix, E. tenella and E. brunetti. In words: Prophylactic anticoccidial effect in chickens of Arbor Aker breed (8 Eimeria strains). It is filed as in vivo. The conditions noted are these: 100 ppm in feed from day 3, infected day 7. How it is done:
JA 12, JA 39 and JA 42 was also evaluated in chickens of Arbor Aker breed. These trials were conducted by using basically the same test protocol as that used for the chickens of Habbared X breed, albeit with the following modifications:
• i) On day 3 after hatch, the tested groups of chickens received feed containing 100 ppm of JA 12, JA 39, JA 42 or Coxistac (60 ppm); • ii) On day 7 after hatch, the chickens were infected orally by oocysts containing a mixture of 8 mature sporulated strains, namely E. mitis, E. hagani, E. praecox, E. acervulina, E. maxima, E. necatrix, E. tenella and E. brunetti.

Assay [12] has as its system gram-positive bacteria. In words: Antibacterial activity against gram-positive bacteria, overall comparison with enrofloxacin. Conditions: seven gram-positive strains of Table 6. The assay is classed as cell-based. How it is done:
as §2, §3
In this evaluation, the antibacterial activity of the present compounds and enrofloxacin as reference compound was tested against seven strains of gram-positive bacteria, namely Bacillus subtilus (ATCC 6633), Bacillus cereus, Streptococcus faecium, Micrococcus Luteus (ATCC 9341), Staph. aureus (ATCC 29737), Staph. epidermidis (ATCC 12228) and Staphylococcus (ATCC 6538).

≈ marks a conversion by molar mass, not a printed value.

For `O=C(O)c1cn(C2CC2)c2cc(N3CCN(c4cccc(Cl)n4)CC3)c(F)cc2c1=O` [JA 42, 7-[4-(6-chloro-2-pyridinyl)-1-piperazinyl]-1-cyclopropyl-6-fluoro-4-oxo-1,4-dihydro-3-quinolinecarboxylic acid], in assay [1], the MIC was 0.06 µg/mL (≈ 0.135 µM). Moreover, the MIC in assay [2] stood at 0.01 µg/mL (≈ 0.0226 µM). The MIC in assay [3] was 1 µg/mL (≈ 2.26 µM). Also, the MIC in [4] came out at 0.03 µg/mL (≈ 0.0677 µM). Moreover, the MIC in assay [5] stood at 0.008 µg/mL (≈ 0.0181 µM). Besides, the MIC in assay [6] was 0.06 µg/mL (≈ 0.135 µM). For the same molecule, the MIC in [7] was found to be 0.25 µg/mL (≈ 0.564 µM). The “antibacterial activity against gram-negative bacteria compared to that of enrofloxacin” value in assay [8] is given as “roughly equal to that of enrofloxacin”. Also, the MIC in [9] was 0.25 µg/mL (≈ 0.564 µM). In assay [10], the “anticoccidial effect (in words)” value was “excellent anticoccidial effect”; the “Average number of Eimeria spp. oocysts/g faeces, day after hatch 14” value was 0.0 oocysts/g faeces; the “Average number of Eimeria spp. oocysts/g faeces, day after hatch 15” value was 4000 oocysts/g faeces; the “Average number of Eimeria spp. oocysts/g faeces, day after hatch 16” value was 6000 oocysts/g faeces. Further, in assay [10], the “Average number of Eimeria spp. oocysts/g faeces, day after hatch 17” value is 3000 oocysts/g faeces; the “Average number of Eimeria spp. oocysts/g faeces, day after hatch 18” value worked out at 0.0 oocysts/g faeces; the “Average number of Eimeria spp. oocysts/g faeces, day after hatch 19” value turned out to be 0.0 oocysts/g faeces; the “Average number of Eimeria spp. oocysts/g faeces, day after hatch 21” value is on record as 0.0 oocysts/g faeces. Besides, in assay [10], the “Mean body weight” value amounted to 73.7 g; the “Mean amount of feed consumed” value is given as 91 g; the “Average number of Eimeria spp. oocysts/g faeces, Total” value is given as 13000 oocysts/g faeces. Besides, the “prophylactic anticoccidial effect (in words)” value in assay [11] is “essentially the same as those reported for the trials with the chickens of Habbared X breed”.

For the molecule `COc1ccc(S(=O)(=O)N2CCN(c3cc4c(cc3F)c(=O)c(C(=O)O)cn4C3CC3)CC2)cc1` [JA 4, 1-cyclopropyl-6-fluoro-7-{4-[(4-methoxyphenyl)sulfonyl]-1-piperazinyl}-4-oxo-1,4-dihydro-3-quinolinecarboxylic acid], the MIC in assay [1] is 0.01 µg/mL (≈ 0.0199 µM); in [2], 0.01 µg/mL (≈ 0.0199 µM); in [3], 0.25 µg/mL (≈ 0.498 µM); in [4] it was 0.06 µg/mL (≈ 0.12 µM); in assay [5], 0.03 µg/mL (≈ 0.0598 µM); in [6] it was 0.01 µg/mL (≈ 0.0199 µM). In assay [7], the MIC stood at 0.06 µg/mL (≈ 0.12 µM). The “antibacterial activity against gram-positive bacteria compared to that of enrofloxacin” value in assay [12] is “clearly superior”.

For `O=C(O)c1cn(C2CC2)c2cc(N3CCN(c4cncc(Cl)n4)CC3)c(F)cc2c1=O` [JA 39, 7-[4-(6-chloro-2-pyrazinyl)-1-piperazinyl]-1-cyclopropyl-6-fluoro-4-oxo-1,4-dihydro-3-quinolinecarboxylic acid], in [1], the MIC came out at 0.01 µg/mL (≈ 0.0225 µM). The MIC in [2] worked out at 0.06 µg/mL (≈ 0.135 µM). For the same molecule, the MIC in assay [3] was 1 µg/mL (≈ 2.25 µM). The MIC in assay [4] was 0.12 µg/mL (≈ 0.27 µM). The same molecule came in with an MIC in assay [5] of 0.01 µg/mL (≈ 0.0225 µM). In addition, in assay [6], the MIC worked out at 0.03 µg/mL (≈ 0.0676 µM). The MIC in assay [7] amounted to 0.25 µg/mL (≈ 0.563 µM). Besides, the “antibacterial activity against gram-positive bacteria compared to that of enrofloxacin” value in [12] was “clearly superior”. Besides, in [10], the “anticoccidial effect (in words)” value is “excellent anticoccidial effect”; the “Average number of Eimeria spp. oocysts/g faeces, day after hatch 14” value was 0.0 oocysts/g faeces; the “Average number of Eimeria spp. oocysts/g faeces, day after hatch 15” value came to 4000 oocysts/g faeces; the “Average number of Eimeria spp. oocysts/g faeces, day after hatch 16” value came out at 5000 oocysts/g faeces. In addition, in assay [10], the “Average number of Eimeria spp. oocysts/g faeces, day after hatch 17” value came out at 3000 oocysts/g faeces; the “Average number of Eimeria spp. oocysts/g faeces, day after hatch 18” value is 0.0 oocysts/g faeces; the “Average number of Eimeria spp. oocysts/g faeces, day after hatch 19” value is recorded as 0.0 oocysts/g faeces; the “Average number of Eimeria spp. oocysts/g faeces, day after hatch 21” value was determined as 0.0 oocysts/g faeces. Further, in assay [10], the “Mean body weight” value worked out at 68.2 g; the “Mean amount of feed consumed” value was 81 g; the “Average number of Eimeria spp. oocysts/g faeces, Total” value is listed as 12000 oocysts/g faeces. In assay [11], the “prophylactic anticoccidial effect (in words)” value is “essentially the same as those reported for the trials with the chickens of Habbared X breed”.
